Usually bioavailability stands for dose-corrected exposure relative to a reference, in per cent.

Data set [1] is described as follows: In vivo pharmacokinetic study in mice. The conditions noted are these: male, ICR, mouse, plasma, oral, 3 mg/kg intravenous, 10 mg/kg intragastric. On the procedure: 24 male ICR mice weighing 18-22 g (provided by Shanghai Xipuerbikai Experimental Animal Co., Ltd, certificate No.: 20130016005759). The mice were fasted for feed but not water for 12-16 hours before the experiment. 24 mice were divided into 2 groups with 12 mice in each group. The first group was intravenously administrated with 3 mg/kg (which was dissolved by the ratio 0.9% physiological saline:PEG 400=8:2, to give a clear solution with a concentration of 0.3 mg/mL and a dosage volume of 10 mL/kg) of the final product of Embodiment 45. Blood samples were collected before administration and 2, 5, 15, 30, 60, 90, 120, 240, 360, 480, 600 and 1440 minutes after administration, respectively. The second group was intragastricly administrated with 10 mg/kg (0.5% CMC-Na was added and grounded into a uniform suspension with a concentration of 0.5 mg/mL and a dosage volume of 20 mL/kg) of the final product of Embodiment 45. […]
(§1) 0.4 mL of blood was taken from fundus venous plexus of mice and rats into a heparinized centrifuge tube (10 μL heparin sodium solution/tube). […] After vortexing for 10 minutes and centrifuging at 6000 g and 4° C. for 10 minutes, the supernatant was diluted with mobile phase in a 96-well plate, and the drug concentration in plasma was determined by UPLC/MS-MS.

Data set [2] is described as follows: In vivo pharmacokinetic study in rats. The conditions noted are these: male, SD, rat, plasma, oral, 3 mg/kg intravenous, 6 mg/kg intragastric. The method, then:
Five male SD rats, weighing 180-220 g (provided by Shanghai Xipuerbikai Experimental Animal Co., Ltd, certificate No. 20130016005408). The rats were fasted for feed but not water for 12-16 hours before the experiment. Two rats were intravenously injected with 3 mg/kg (which was dissolved by the ratio 0.9% physiological saline:PEG 400=7:3, to give a clear solution with a concentration of 1 mg/mL and a dosage volume of 3 mL/kg) of the final product of Embodiment 45. Blood samples were collected before administration and at 2, 5, 15, 30, 60, 90, 120, 240, 360, 480, 600 and 1440 minutes after administration respectively; three rats were intragastricly administrated with 6 mg/kg (0.5% CMC-Na was added and grounded into a uniform suspension with a concentration of 0.75 mg/mL and a dosage volume of 8 mL/kg) of the final product of Embodiment 45. Blood samples were collected before administration and at 5, 15, 30, 60, 90, 120, 240, 360, 480, 600 and 1440 minutes after administration respectively.
as §1

Data set [3] concerns HER2 overexpressing human gastric cancer NCI-N87 nude mice xenograft. As to the kind of experiment: HER2 overexpressing human gastric cancer NCI-N87 nude mice xenograft model. Type of data set: in vivo. To be noted: continuous oral administration for 21 days. The source says: We have established nude mice xenograft model for HER2 overexpression.

The structures appear in SMILES notation.

For `CCOc1cc2ncnc(Nc3ccc(Oc4ccn5ncnc5c4)c(C)c3)c2cc1NC(=O)/C(F)=C/[C@H]1CCCN1C` [Final product of Embodiment 45], the bioavailability in data set [1] was 87.7%; in data set [2], 71.3%.
Take `CCOc1cc2ncnc(Nc3ccc(Oc4ccn5ncnc5c4)c(C)c3)c2cc1NC(=O)/C=C/[C@H]1CCCN1C` [Final product of Embodiment 22, (R,E)-N-(4-((4-([1,2,4]triazolo[1,5-a]pyridin-7-yloxy)-3-methylphenyl)amino)-7-ethoxyquinazolin-6-yl)-3-(1-methylpyrrolidin-2-yl)acrylamide]: in data set [3] (5 mg/kg, 10 mg/kg and 20 mg/kg), the tolerability entry was “tolerant”. Besides, the “tumor volume inhibition rate (GI %)” value in data set [3] (5 mg/kg) stood at 51.5%; in data set [3] (10 mg/kg), 130.1%; in data set [3] (20 mg/kg), 146.2%.

Source of the values: patent publication US11578074B2, “Nitrogenous heterocyclic compound, preparation method, intermediate, composition, and application” (SHANGHAI PHARMACEUTICALS HOLDING CO., LTD., priority 2017, dated 2023).
